Results: BigSolDB 2.1

CC1(C)[C@@H](O)CC[C@]2(C)[C@H]3C(=O)C=C4[C@@H]5C[C@@](C)(C(=O)O)CC[C@]5(C)CC[C@@]4(C)[C@]3(C)CC[C@@H]12
Conditions	solubility (mole fraction)
in 1,4-dioxane, 288.15 K	0.0269
in 1,4-dioxane, 293.15 K	0.028
in 1,4-dioxane, 298.15 K	0.0297
in 1,4-dioxane, 303.15 K	0.0315
in 1,4-dioxane, 308.15 K	0.0327
in 1,4-dioxane, 313.15 K	0.0337
in 1,4-dioxane, 318.15 K	0.0349
in 1,4-dioxane, 323.15 K	0.036
in DMF, 278.15 K	0.0467
in DMF, 283.15 K	0.0474
in DMF, 288.15 K	0.0515
in DMF, 293.15 K	0.0552
in DMF, 298.15 K	0.0576
in DMF, 303.15 K	0.0598
in DMF, 308.15 K	0.0643
in DMF, 313.15 K	0.0678
in DMF, 318.15 K	0.0716
in DMF, 323.15 K	0.0763
in THF, 278.15 K	0.0764
in THF, 283.15 K	0.077
in THF, 288.15 K	0.0774
in THF, 293.15 K	0.078
in THF, 298.15 K	0.0787
in THF, 303.15 K	0.0794
in THF, 308.15 K	0.0804
in THF, 313.15 K	0.0815
in THF, 318.15 K	0.0827
in THF, 323.15 K	0.0842
in acetone, 278.15 K	0.00321
in acetone, 283.15 K	0.00347
in acetone, 288.65 K	0.00365
in acetone, 293.15 K	0.0038
in acetone, 298.15 K	0.00414
in acetone, 303.15 K	0.00438
in acetone, 308.15 K	0.00468
in acetone, 313.15 K	0.00495
in acetone, 318.15 K	0.00543
in acetone, 323.15 K	0.00598
in ethanol, 278.15 K	0.0106
in ethanol, 283.15 K	0.0112
in ethanol, 288.65 K	0.0125
in ethanol, 293.15 K	0.0132
in ethanol, 298.15 K	0.0138
in ethanol, 303.15 K	0.0143
in ethanol, 308.15 K	0.0148
in ethanol, 313.15 K	0.0152
in ethanol, 318.15 K	0.0158
in ethanol, 323.15 K	0.0168
in isobutyl acetate, 278.15 K	0.00229
in isobutyl acetate, 283.15 K	0.00232
in isobutyl acetate, 288.15 K	0.00239
in isobutyl acetate, 293.15 K	0.00242
in isobutyl acetate, 298.15 K	0.00247
in isobutyl acetate, 303.15 K	0.00256
in isobutyl acetate, 308.15 K	0.00273
in isobutyl acetate, 313.15 K	0.00278
in isobutyl acetate, 318.15 K	0.00288
in isobutyl acetate, 323.15 K	0.00314
in isopropanol, 278.15 K	0.00857
in isopropanol, 283.15 K	0.00946
in isopropanol, 288.65 K	0.0114
in isopropanol, 293.15 K	0.012
in isopropanol, 298.15 K	0.0129
in isopropanol, 303.15 K	0.0139
in isopropanol, 308.15 K	0.0149
in isopropanol, 313.15 K	0.0156
in isopropanol, 318.15 K	0.0164
in isopropanol, 323.15 K	0.0174
in methanol, 278.15 K	0.00229
in methanol, 283.15 K	0.00257
in methanol, 288.65 K	0.00295
in methanol, 293.15 K	0.00329
in methanol, 298.15 K	0.00373
in methanol, 303.15 K	0.00427
in methanol, 308.15 K	0.00486
in methanol, 313.15 K	0.00562
in methanol, 318.15 K	0.00675
in methanol, 323.15 K	0.00755
in methyl acetate, 278.15 K	0.00182
in methyl acetate, 283.15 K	0.00196
in methyl acetate, 288.15 K	0.00203
in methyl acetate, 293.15 K	0.00227
in methyl acetate, 298.15 K	0.00244
in methyl acetate, 303.15 K	0.00259
in methyl acetate, 308.15 K	0.0027
in methyl acetate, 313.15 K	0.00293
in methyl acetate, 318.15 K	0.00319
in methyl acetate, 323.15 K	0.0034
in n-butyl acetate, 278.15 K	0.00286
in n-butyl acetate, 283.15 K	0.00297
in n-butyl acetate, 288.15 K	0.00315
in n-butyl acetate, 293.15 K	0.00327
in n-butyl acetate, 298.15 K	0.00333
in n-butyl acetate, 303.15 K	0.00344
in n-butyl acetate, 308.15 K	0.0035
in n-butyl acetate, 313.15 K	0.00354
in n-butyl acetate, 318.15 K	0.00359
in n-butyl acetate, 323.15 K	0.00364
in n-propanol, 278.15 K	0.0131
in n-propanol, 283.15 K	0.0146
in n-propanol, 288.65 K	0.016
in n-propanol, 293.15 K	0.0174
in n-propanol, 298.15 K	0.0186
in n-propanol, 303.15 K	0.0194
in n-propanol, 308.15 K	0.0206
in n-propanol, 313.15 K	0.0218
in n-propanol, 318.15 K	0.0223
in n-propanol, 323.15 K	0.023
in n-propyl acetate, 278.15 K	0.00157
in n-propyl acetate, 283.15 K	0.00176
in n-propyl acetate, 288.15 K	0.00193
in n-propyl acetate, 293.15 K	0.00211
in n-propyl acetate, 298.15 K	0.00232
in n-propyl acetate, 303.15 K	0.00245
in n-propyl acetate, 308.15 K	0.00261
in n-propyl acetate, 313.15 K	0.00273
in n-propyl acetate, 318.15 K	0.00284
in n-propyl acetate, 323.15 K	0.00295
